Laboratory results from paper PMC5888987 (Carcinogenesis, 2018).

Key:
Assay type in all cases: biochemical
[1] = biological target: DNMT3A (Homo sapiens, UniProt Q9Y6K1); assay: AlphaScreen methyltransferase assay with […] SAM
[2] = biological target: mTOR (Homo sapiens, UniProt P42345); assay: FRET-based Z-LYTE kinase assay
[3] = biological target: DNMT1 (Homo sapiens, UniProt P26358); assay: AlphaScreen methyltransferase assay with […] SAM
[4] = biological target: DNMT3B (Homo sapiens, UniProt Q9UBC3); assay: AlphaScreen methyltransferase assay with […] SAM

Sequence of DNMT3A (Q9Y6K1 whole entry, looked up): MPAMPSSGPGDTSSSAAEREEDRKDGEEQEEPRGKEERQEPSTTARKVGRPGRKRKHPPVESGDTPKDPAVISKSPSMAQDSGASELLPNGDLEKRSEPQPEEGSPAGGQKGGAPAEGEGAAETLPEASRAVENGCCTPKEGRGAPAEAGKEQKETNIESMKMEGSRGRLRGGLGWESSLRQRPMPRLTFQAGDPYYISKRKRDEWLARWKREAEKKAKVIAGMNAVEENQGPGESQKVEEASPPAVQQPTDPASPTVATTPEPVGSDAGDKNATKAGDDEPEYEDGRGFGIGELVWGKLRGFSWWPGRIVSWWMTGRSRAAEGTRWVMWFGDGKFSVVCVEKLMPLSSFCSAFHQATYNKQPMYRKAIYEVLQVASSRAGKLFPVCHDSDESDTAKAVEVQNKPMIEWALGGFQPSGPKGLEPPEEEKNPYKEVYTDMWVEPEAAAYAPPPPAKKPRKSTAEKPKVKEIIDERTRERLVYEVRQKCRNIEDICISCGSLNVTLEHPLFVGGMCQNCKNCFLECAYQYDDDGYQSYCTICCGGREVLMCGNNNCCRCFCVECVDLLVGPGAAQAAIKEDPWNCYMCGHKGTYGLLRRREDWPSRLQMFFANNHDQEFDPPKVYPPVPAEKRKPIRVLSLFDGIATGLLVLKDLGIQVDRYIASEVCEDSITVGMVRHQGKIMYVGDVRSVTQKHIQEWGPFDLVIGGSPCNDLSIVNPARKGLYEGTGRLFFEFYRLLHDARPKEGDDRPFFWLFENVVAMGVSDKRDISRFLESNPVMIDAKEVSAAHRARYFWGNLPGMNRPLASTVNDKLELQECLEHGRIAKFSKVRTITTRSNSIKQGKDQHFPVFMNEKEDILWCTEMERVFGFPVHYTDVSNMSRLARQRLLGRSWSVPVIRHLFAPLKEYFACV
Sequence of DNMT1 (P26358 whole entry): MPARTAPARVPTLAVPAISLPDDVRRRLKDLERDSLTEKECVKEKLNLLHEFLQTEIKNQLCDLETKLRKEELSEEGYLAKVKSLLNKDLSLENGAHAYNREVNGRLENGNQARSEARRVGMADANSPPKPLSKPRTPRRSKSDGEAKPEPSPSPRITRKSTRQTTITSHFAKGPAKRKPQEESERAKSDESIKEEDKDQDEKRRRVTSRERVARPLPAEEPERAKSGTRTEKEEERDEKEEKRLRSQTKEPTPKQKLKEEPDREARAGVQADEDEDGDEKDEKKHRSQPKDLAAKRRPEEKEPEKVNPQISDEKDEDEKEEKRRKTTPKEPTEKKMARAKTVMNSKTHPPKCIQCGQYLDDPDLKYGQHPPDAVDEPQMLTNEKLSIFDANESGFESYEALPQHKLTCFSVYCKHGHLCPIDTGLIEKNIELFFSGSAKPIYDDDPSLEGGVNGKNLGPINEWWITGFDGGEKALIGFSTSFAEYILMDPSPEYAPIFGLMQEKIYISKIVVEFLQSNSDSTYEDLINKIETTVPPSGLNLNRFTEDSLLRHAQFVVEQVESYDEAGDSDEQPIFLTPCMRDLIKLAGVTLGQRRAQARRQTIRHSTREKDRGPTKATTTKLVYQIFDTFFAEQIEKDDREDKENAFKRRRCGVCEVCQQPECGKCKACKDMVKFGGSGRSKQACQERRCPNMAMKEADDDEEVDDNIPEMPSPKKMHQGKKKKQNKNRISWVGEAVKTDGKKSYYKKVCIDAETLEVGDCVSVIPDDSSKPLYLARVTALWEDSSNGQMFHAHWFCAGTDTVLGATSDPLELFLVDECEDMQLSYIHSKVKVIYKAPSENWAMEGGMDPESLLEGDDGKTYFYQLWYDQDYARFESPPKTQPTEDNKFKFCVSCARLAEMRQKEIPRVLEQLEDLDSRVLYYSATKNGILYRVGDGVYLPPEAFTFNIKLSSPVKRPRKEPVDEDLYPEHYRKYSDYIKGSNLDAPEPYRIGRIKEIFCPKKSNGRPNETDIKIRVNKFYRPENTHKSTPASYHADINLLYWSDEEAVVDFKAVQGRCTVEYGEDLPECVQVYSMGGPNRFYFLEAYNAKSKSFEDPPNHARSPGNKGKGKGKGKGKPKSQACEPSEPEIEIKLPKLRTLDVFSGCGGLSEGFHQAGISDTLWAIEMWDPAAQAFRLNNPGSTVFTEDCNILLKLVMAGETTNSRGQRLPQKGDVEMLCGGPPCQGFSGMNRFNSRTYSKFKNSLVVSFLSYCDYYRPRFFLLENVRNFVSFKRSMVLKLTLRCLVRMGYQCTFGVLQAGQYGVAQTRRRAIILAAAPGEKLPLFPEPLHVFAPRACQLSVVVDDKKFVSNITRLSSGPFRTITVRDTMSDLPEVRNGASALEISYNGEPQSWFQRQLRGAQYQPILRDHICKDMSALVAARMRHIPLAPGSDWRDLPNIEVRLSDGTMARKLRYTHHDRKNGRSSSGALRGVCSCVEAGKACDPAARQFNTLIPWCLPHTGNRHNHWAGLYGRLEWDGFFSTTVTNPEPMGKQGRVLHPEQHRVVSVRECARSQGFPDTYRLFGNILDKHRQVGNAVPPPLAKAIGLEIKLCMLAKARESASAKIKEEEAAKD

IC50 [1]	IC50 [2]	IC50 [3]	IC50 [4]	SMILES
5.7 µM	2.6 µM	11.5 µM	5.2 µM	C/C=C(/C=O)[C@@H](CC=O)CC(=O)OCCc1ccc(O)c(O)c1 [DOA, decarboxymethyl oleuropein aglycone]
5.8 µM	–	–	2.8 µM	Nc1ncnc2c1ncn2[C@@H]1O[C@H](CSCC[C@H](N)C(=O)O)[C@@H](O)[C@H]1O [SAH, S-adenosyl-l-homocysteine, reference compound]
